Reference: US10294226B2, “Small molecule inhibitors of the JAK family of kinases” (Janssen Pharmaceutica NV, priority 2016, dated 2019)

Assays:
[1] = molecular target: JAK1-JH1JH2 (Homo sapiens (Human), UniProt P23458); test: Enzymatic inhibition assay (HTMS); type: biochemical; details: 12.5 μM ATP; read-out: JAK1_JH1JH2 IC50
Excerpt: (§1) JAK1-JH1JH2 (574-1154 with a His-GST Tag and a C-terminal tev (ENLYFQ-G) cleavage site), JAK3-JH1JH2 (512-1124 with a GST Tag and a C-terminal tev (ENLYFQ-G) cleavage site), and Tyk2-JH1JH2 (8H_tev_580-1182-C936A-C1142A with a C-terminal tev (ENLYFQ-G) cleavage site) were purified internally. […] LC/MS grade water and acetonitrile (ACN), were purchased from HoneyWell, Burdick & Jackson (Muskegon, Mich., USA). Dimethylsulfoxide 99.8% (DMSO) and trifluoroacetic acid 99.5% (TFA) were purchased from EMD Chemical (Gibbstown, N.J., USA). Adenosine triphosphate (ATP), 4-morpholinepropanesulfonic acid (MOPS), magnesium chloride (MgCl2), ethylenediaminetetraacetic acid (EDTA), dithiothreitol (DTT), formic acid>95% (FA) and Tween-20 were purchased from Sigma (St Louis, Mo., USA). 384-well polypropylene plates, Cat#781280 were purchased from Greiner (Monroe, N.C.), RapidFire™ cartridge A C4 Column (Agilent Technologies, Santa Clara, Calif.).
(§2) The HTMS experiments were performed in positive ionization mode on a RapidFire 300 instrument (Agilent Technologies, Santa Clara, Calif.), coupled with an ABSiex QTrap 4000 system with an Electrospray Ionization source (RF-MS) (Concord, ON, Canada). […] The entire system was operated using the RapidFire software interfaced with Analyst software for the mass spectrometer.
(§3) 11-point dosing series were made for each compound by serially diluting 1:3 or 1:4 in DMSO, with point 12 being a DMSO control. From the serial dilution plates, sample was transferred to a 384 wells assay plate (#781280, Greiner, Monroe, N.C.) using Labcyte Echo (Sunnyvale, Calif.), or Biosero ATS (San Diego, Calif.). The compounds were tested in duplicate. Column 12 was used for positive controls, and column 24 contained negative controls with no enzyme added. A compound from our internal collection, with inhibitory activity for JAK isoforms, was used as a reference compound. The final concentration of DMSO was ≤0.25% in a 20 μL reaction. The enzyme reaction was initiated by the addition of 10 μL of enzyme and ATP mixture to 10 μL of substrate solution prepared in reaction buffer (50 mM MOPS pH 7.5, 10 mM MgCl2, 1 mM EDTA, 2 mM DTT, 0.002% Tween-20). The Tyk2 enzyme was pre-incubated with 2 mM ATP for 30 min prior to the reaction initiation. Immediately after the addition of the enzyme to the reaction mixture, the plate was centrifuged at 1000 rpm for 1 minute and incubated at 25° C. for 45 minutes for JAK3 and 90 minutes for JAK1, JAK2 and Tyk2. The reaction was quenched by the addition of 20 μL of 0.5% TFA containing 0.15 μM of internal standard peptide using Multidrop Combi reagent dispenser (Thermo Scientific, Waltham, Mass.). […] After the quench, the assay plate was centrifuged at 3000 rpm for 3 minutes and sealed with pierceable aluminum foil (Cat#06644-001, Agilent) using a PlateLoc (Agilent Technologies, Santa Clara, Calif.). The plates then were transferred on to the RapidFire for the MS analysis. Compound inhibition was assessed by a decrease of the phosphorylated product levels in sample wells compared to the non-inhibited enzyme reaction.
(§4) The sample analysis on the RapidFire was performed using a mobile phase A1 consisting of Water/TFA/FA (100:0.01:0.1, v/v/v), a mobile phase B1 consisting of ACN/Water/TFA/FA (80:20:0.01:0.1, v/v/v). […] The samples were aspirated directly from the 384-well assay plate and delivered onto RF-MS microscale solid-phase C4 extraction cartridge (Type A). The undesired component such as salt, cofactor, detergent and large protein were washed out and the retained analytes (substrate, product and IS) were coeluted directly onto the AB Siex Qtrap 4000 system.

[2] = molecular target: JAK2-JH1JH2 (Homo sapiens (Human), UniProt O60674); test: Enzymatic inhibition assay (HTMS); type: biochemical; details: 30 μM ATP; read-out: JAK2_I_JH1JH2 IC50
Sequence of JAK2-JH1JH2 (O60674 532-1132): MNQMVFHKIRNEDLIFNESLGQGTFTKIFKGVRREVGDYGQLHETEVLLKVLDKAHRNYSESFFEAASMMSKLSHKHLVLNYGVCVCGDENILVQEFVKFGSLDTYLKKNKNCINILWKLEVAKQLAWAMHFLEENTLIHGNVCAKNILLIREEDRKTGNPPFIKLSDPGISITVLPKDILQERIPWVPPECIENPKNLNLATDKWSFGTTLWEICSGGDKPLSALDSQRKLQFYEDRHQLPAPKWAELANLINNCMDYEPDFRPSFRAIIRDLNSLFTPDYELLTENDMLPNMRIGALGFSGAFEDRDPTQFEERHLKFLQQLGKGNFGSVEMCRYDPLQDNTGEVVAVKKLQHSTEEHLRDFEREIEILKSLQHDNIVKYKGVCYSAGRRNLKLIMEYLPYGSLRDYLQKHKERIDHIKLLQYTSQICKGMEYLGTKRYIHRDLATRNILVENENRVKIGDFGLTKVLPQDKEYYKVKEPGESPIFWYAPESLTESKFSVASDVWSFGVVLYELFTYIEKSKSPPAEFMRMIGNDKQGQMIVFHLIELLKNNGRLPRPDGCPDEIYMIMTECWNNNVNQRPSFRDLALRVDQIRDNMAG
Excerpt: as §1, §2, §3, §4

[3] = molecular target: JAK3-JH1JH2 (Homo sapiens (Human), UniProt P52333); test: Enzymatic inhibition assay (HTMS); type: biochemical; details: 150 μM ATP; read-out: JAK3_I_JH1JH2 IC50
Sequence of JAK3-JH1JH2 (P52333 512-1124): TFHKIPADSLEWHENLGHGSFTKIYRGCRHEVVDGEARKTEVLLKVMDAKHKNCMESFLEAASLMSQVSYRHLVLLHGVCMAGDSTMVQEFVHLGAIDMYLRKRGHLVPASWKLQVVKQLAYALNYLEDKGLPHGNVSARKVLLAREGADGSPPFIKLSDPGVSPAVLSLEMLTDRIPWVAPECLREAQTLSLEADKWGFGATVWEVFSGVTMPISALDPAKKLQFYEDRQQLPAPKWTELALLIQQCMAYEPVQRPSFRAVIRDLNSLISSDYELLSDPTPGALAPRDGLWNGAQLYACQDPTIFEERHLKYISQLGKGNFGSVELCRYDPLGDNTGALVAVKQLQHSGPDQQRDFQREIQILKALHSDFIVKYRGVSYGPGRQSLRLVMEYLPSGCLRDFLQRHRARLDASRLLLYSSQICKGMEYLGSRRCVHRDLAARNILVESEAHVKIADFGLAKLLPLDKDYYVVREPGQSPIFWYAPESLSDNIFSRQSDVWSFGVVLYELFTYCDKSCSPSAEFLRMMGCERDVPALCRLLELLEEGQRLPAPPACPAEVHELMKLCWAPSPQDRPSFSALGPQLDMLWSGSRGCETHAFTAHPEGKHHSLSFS
Excerpt: as §1, §2, §3, §4

[4] = molecular target: Tyk2-JH1JH2 (Homo sapiens (Human), UniProt P29597, C1142A/C936A); test: Enzymatic inhibition assay (HTMS); type: biochemical; details: 50 μM ATP; read-out: Tyk2_I_JH1JH2 IC50
Sequence of Tyk2-JH1JH2 (P29597 580-1182 C936A/C1142A): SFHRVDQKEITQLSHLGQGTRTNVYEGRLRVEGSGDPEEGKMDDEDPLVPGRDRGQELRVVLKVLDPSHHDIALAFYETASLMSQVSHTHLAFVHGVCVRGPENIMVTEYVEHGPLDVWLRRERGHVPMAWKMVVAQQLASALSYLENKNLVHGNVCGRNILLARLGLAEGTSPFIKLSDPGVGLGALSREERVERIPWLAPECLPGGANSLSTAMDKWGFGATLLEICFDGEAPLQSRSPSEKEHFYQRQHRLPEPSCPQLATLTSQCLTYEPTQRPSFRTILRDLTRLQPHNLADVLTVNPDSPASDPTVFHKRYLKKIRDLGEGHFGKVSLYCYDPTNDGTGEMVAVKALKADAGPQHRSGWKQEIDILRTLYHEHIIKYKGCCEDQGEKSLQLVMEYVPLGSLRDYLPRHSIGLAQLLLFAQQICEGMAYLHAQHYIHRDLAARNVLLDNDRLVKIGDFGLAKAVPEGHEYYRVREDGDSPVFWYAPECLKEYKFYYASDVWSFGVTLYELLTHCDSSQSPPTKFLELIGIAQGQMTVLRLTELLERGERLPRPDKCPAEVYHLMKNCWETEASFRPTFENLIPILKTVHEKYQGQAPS
Excerpt: as §1, §2, §3, §4

[5] = tested on: IFNα pSTAT4 (JAK1/TYK2); test: IFNα pSTAT4 (JAK1/TYK2) cellular assay, AlphaLISA in PBMCs; type: cell-based; details: PBMC, IFNα 4 ng/mL
Procedure: The AlphaLISA assay (based on Alpha Technology from PerkinElmer) was performed by first plating freshly thawed PBMCs (Biological Specialty Corporation) in 384-well plates at 100,000 cells per 6 μL per well in DMEM (Dulbecco's Modified Eagle Medium) containing 10% FBS (fetal bovine serum) and 1,000 I.U./mL penicillin and 1,000 μg/mL streptomycin. The cells were then treated with 2 μL/well of compounds diluted in DMSO at half-log titrated concentrations, with a highest test concentration of 10 μM and 0.5% final DMSO concentration, for thirty minutes at 37° C. Next, the cells were stimulated with 2 μL/well of IFNα (PBL Assay Science Cat. No. 11101-2) at 4 ng/mL for thirty minutes at 37° C. The cellular reactions were terminated by the addition of 2 μL/well of lysis buffer (PerkinElmer Cat. No. ALSU-PST4-A10K) followed by an incubation of five minutes at room temperature. 4 μL/well of acceptor mix (PerkinElmer Cat. No. ALSU-PST4-A10K) was added to the cells and incubated in the dark for one hour at room temperature. Then, 4 μL/well of donor mix (PerkinElmer Cat. No. ALSU-PST4-A10K) was added to the cells and incubated in the dark overnight at room temperature. Finally, the plates were read on a PerkinElmer EnVision for detection of the time-resolved fluorescence signal. The percentage of IFNα-dependent pSTAT4 inhibition was determined at the compound test concentrations; and for each compound, a dose curve was generated and the IC50 was calculated. Compound IC50 was calculated by nonlinear regression, sigmoidal dose response analysis of the half-log dilution titration curve of the compound concentration vs. Alpha signal. The term “Alpha” is defined in the immediately preceding cellular assay description.

[6] = tested on: P-gp (MDR1); test: MDCK-MDR1 permeability assay; type: in vitro ADME; details: dog, MDCK-MDR1, pH 7.4, with elacridar 2 μM, @ 5 μM, apical to basolateral, with P-gp inhibitor elacridar (2 μM); read-out: MDCK-MDR1 P^eapp(A-B)
Procedure: Permeability measurements were conducted according to the Cyprotex protocol using the MDCK-MDR1 cell line obtained from the NIH (Rockville, Md., USA). […] The cells in this assay form a cohesive sheet of a single cell layer filing the surface area of the culture dish, also known as a confluent monolayer, and on day four the test compound was added to the apical side of the membrane and the transport of the compound across the monolayer was monitored over a time period of 60 min.
Test compounds were dissolved in DMSO at a concentration of 10 mM. The dosing solutions were prepared by diluting test compound with assay buffer (Hanks Balanced Salt Solution), pH 7.4, at a final concentration of 5 μM. For assessment of apical to basolateral (“A-B”) permeability, buffer was removed from the apical compartment and replaced with test compound dosing solution with or without the permeability glycoprotein (“PgP”, “P-gP”, “Pgp” or “P-gp”) inhibitor elacridar (2 μM). For assessment of basolateral to apical (“B-A”) permeability, buffer was removed from the companion plate and replaced with test compound dosing solution. Incubations were carried out in duplicate at 37° C. in an atmosphere of 5% CO2 with a relative humidity of 95%. […] After incubation for 60 minutes, apical and basolateral samples were diluted and test compounds quantified by LC/MS/MS using an 8-point calibration in the range 0.0039 to 3 μM with appropriate dilution of the samples (receiver dilution factor=1; donor and C0 dilution factor=10). The permeability coefficient (Papp) for each compound was calculated from the following equation: Papp=(dQ/dt)/(C0×S), where dQ/dt is the rate of permeation of the drug across the cells, C0 is the donor compartment concentration at time zero, and S is the area of the cell monolayer.
The percent recovery was measured for all incubation conditions.
Papp(A-B) gives an indication of permeation extent across the cells in this assay, which is envisaged to model the transcellular transport across Pgp-expressing cells, such as Pgp-expressing gastrointestinal tract cells.
The integrity of each monolayer was monitored by examining the permeation of lucifer yellow by fluorimetric analysis.

[7] = pH 6.5

Sequence of JAK1-JH1JH2 (P23458 574-1154): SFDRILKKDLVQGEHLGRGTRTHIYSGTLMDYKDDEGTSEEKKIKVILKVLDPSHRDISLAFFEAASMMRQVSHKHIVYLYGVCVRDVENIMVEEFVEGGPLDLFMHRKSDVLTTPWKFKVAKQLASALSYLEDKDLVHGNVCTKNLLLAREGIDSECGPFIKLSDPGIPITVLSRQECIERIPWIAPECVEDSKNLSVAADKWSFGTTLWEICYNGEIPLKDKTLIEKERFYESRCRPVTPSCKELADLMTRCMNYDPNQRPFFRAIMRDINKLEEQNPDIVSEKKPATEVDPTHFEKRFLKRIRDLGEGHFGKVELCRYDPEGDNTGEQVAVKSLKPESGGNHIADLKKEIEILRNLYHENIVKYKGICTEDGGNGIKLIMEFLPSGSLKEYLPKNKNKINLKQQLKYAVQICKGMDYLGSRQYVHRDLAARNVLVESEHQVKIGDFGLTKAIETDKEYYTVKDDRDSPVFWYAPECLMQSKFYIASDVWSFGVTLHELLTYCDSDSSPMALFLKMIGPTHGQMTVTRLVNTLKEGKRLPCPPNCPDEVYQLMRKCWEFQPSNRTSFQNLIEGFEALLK

CC(C)(O)CNC(=O)Cc1nc2cnc3[nH]ccc3c2n1[C@H]1CC[C@H](CC#N)CC1 [Ex. 1, 2-(1-((1r,4r)-4-(Cyanomethyl)cyclohexyl)-1,6-dihydroimidazo[4,5-d]pyrrolo[2,3-b]pyridin-2-yl)-N-(2-hydroxy-2-methylpropyl)acetamide]
IC50 [1]: 0.4 nM | IC50 [2]: 8.6 nM | IC50 [3]: 92.2 nM | IC50 [4]: 7.4 nM | IC50 [5]: 59.5 nM | Papp A→B at 60 min, 5 μM [6]: 1.1 ×10⁻⁶ cm/s

N#CC[C@H]1CC[C@H](n2c(CC(=O)NCC3(O)CC3)nc3cnc4[nH]ccc4c32)CC1 [Ex. 12, 2-(1-((1r,4r)-4-(Cyanomethyl)cyclohexyl)-1,6-dihydroimidazo[4,5-d]pyrrolo[2,3-b]pyridin-2-yl)-N-((1-hydroxycyclopropyl)methyl)acetamide]
IC50 [1]: 0.9 nM | IC50 [2]: 9.4 nM | IC50 [3]: 101 nM | IC50 [4]: 8.7 nM | IC50 [5]: 81.4 nM | Papp A→B at 60 min, 5 μM [6]: 0.6 ×10⁻⁶ cm/s | SIF solubility [7]: >400 µM

N#CC[C@H]1CC[C@H](n2c(-c3c[nH]cn3)nc3cnc4[nH]ccc4c32)CC1 [Ex. 2, 2-((1r,4r)-4-(2-(1H-Imidazol-4-yl)imidazo[4,5-d]pyrrolo[2,3-b]pyridin-1(6H)-yl)cyclohexyl)acetonitrile]
IC50 [4]: 1.5 nM | IC50 [5]: 20.8 nM | Papp A→B at 60 min, 5 μM [6]: 1.6 ×10⁻⁶ cm/s | SIF solubility [7]: >400 µM

N#CC[C@H]1CC[C@H](n2c(CC(=O)NCC3CCOCC3)nc3cnc4[nH]ccc4c32)CC1 [Ex. 6, 2-(1-((1r,4r)-4-(Cyanomethyl)cyclohexyl)-1,6-dihydroimidazo[4,5-d]pyrrolo[2,3-b]pyridin-2-yl)-N-((tetrahydro-2H-pyran-4-yl)methyl)acetamide]
IC50 [1]: 0.1 nM | IC50 [2]: 1.4 nM | IC50 [3]: 28.2 nM | IC50 [4]: 1.1 nM | IC50 [5]: 39.4 nM | Papp A→B at 60 min, 5 μM [6]: 0.9 ×10⁻⁶ cm/s | SIF solubility [7]: >400 µM

N#CCC12CCC(NC(=O)Cc3nc4cnc5[nH]ccc5c4n3[C@H]3CC[C@H](CC#N)CC3)(CC1)C2 [Ex. 10, N-(4-(Cyanomethyl)bicyclo[2.2.1]heptan-1-yl)-2-(1-((1r, 4r)-4-(cyanomethyl)cyclohexyl)-1,6-dihydroimidazo[4,5-d]pyrrolo[2,3-b]pyridin-2-yl)acetamide]
IC50 [1]: 1 nM | IC50 [2]: 6.5 nM | IC50 [3]: 87.5 nM | IC50 [4]: 9 nM | IC50 [5]: 40.4 nM | Papp A→B at 60 min, 5 μM [6]: 1.1 ×10⁻⁶ cm/s

N#CC[C@H]1CC[C@H](n2c(CC(=O)NCC3(O)CCC3)nc3cnc4[nH]ccc4c32)CC1 [Ex. 8, 2-(1-((1r,4r)-4-(Cyanomethyl)cyclohexyl)-1,6-dihydroimidazo[4,5-d]pyrrolo[2,3-b]pyridin-2-yl)-N-((1-hydroxycyclobutyl)methyl)acetamide]
IC50 [1]: 0.4 nM | IC50 [2]: 7 nM | IC50 [3]: 75.6 nM | IC50 [4]: 6.6 nM | IC50 [5]: 42.8 nM | Papp A→B at 60 min, 5 μM [6]: 0.5 ×10⁻⁶ cm/s | SIF solubility [7]: >400 µM

N#CC[C@H]1CC[C@H](n2c(CC(=O)NCC3CC3)nc3cnc4[nH]ccc4c32)CC1 [Ex. 3, 2-(1-((1r,4r)-4-(Cyanomethyl)cyclohexyl)-1,6-dihydroimidazo[4,5-d]pyrrolo[2,3-b]pyridin-2-yl)-N-(cyclopropylmethyl)acetamide]
IC50 [1]: 0.2 nM | IC50 [2]: 6.2 nM | IC50 [3]: 82.8 nM | IC50 [4]: 11.6 nM | IC50 [5]: 10.1 nM | Papp A→B at 60 min, 5 μM [6]: 2.3 ×10⁻⁶ cm/s | SIF solubility [7]: >400 µM

N#CCCNC(=O)Cc1nc2cnc3[nH]ccc3c2n1[C@H]1CC[C@H](CC#N)CC1 [Ex. 4, N-(2-Cyanoethyl)-2-(1-((1r,4r)-4-(cyanomethyl)cyclohexyl)-1,6-dihydroimidazo[4,5-d]pyrrolo[2,3-b]pyridin-2-yl)acetamide]
IC50 [1]: 0.1 nM | IC50 [2]: 6.6 nM | IC50 [3]: 96.2 nM | IC50 [4]: 2.2 nM | IC50 [5]: 64.7 nM | Papp A→B at 60 min, 5 μM [6]: 0.5 ×10⁻⁶ cm/s | SIF solubility [7]: >400 µM

CC(C)(C#N)CNC(=O)Cc1nc2cnc3[nH]ccc3c2n1[C@H]1CC[C@H](CC#N)CC1 [Ex. 7, N-(2-Cyano-2-methylpropyl)-2-(1-((1r,4r)-4-(cyanomethyl)cyclohexyl)-1,6-dihydroimidazo[4,5-d]pyrrolo[2,3-b]pyridin-2-yl)acetamide]
IC50 [1]: 0.2 nM | IC50 [2]: 5.6 nM | IC50 [3]: 98.4 nM | IC50 [4]: 4.8 nM | IC50 [5]: 38.5 nM | Papp A→B at 60 min, 5 μM [6]: 1.2 ×10⁻⁶ cm/s

N#CC[C@H]1CC[C@H](n2c(CC(=O)NC3CCOCC3)nc3cnc4[nH]ccc4c32)CC1 [Ex. 5, 2-(1-((1r,4r)-4-(Cyanomethyl)cyclohexyl)-1,6-dihydroimidazo[4,5-d]pyrrolo[2,3-b]pyridin-2-yl)-N-(tetrahydro-2H-pyran-4-yl)acetamide]
IC50 [1]: 0.3 nM | IC50 [2]: 2.1 nM | IC50 [3]: 23.1 nM | IC50 [4]: 4.1 nM | IC50 [5]: 38.1 nM | Papp A→B at 60 min, 5 μM [6]: 0.7 ×10⁻⁶ cm/s
